Test results taken from PubChem BioAssay (NCI).
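Grown in 96-well plates, cells were treated for 48 hours with each compound at five concentrations. Insufficient inhibition: endpoint recorded as highest concentration tested. At the TGI there is no net growth.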

Columns and labels:
Experiment in all cases: NCI-60 cell line screen, 48 h
HOP-92 NSCLC = test system: HOP-92 NSCLC
HOP-62 NSCLC = test system: HOP-62 NSCLC
NCI-H460 lung = test system: NCI-H460 lung
M19-MEL melanoma = test system: M19-MEL melanoma
SNB-19 CNS = test system: SNB-19 CNS
SK-MEL-28 melanoma = test system: SK-MEL-28 melanoma
RXF 393 renal = test system: RXF 393 renal
DMS 114 small cell lung = test system: DMS 114 small cell lung
TK-10 renal = test system: TK-10 renal
SF-295 CNS = test system: SF-295 CNS
SK-OV-3 ovarian = test system: SK-OV-3 ovarian
CAKI-1 renal = test system: CAKI-1 renal
SNB-78 CNS = test system: SNB-78 CNS
NCI-H23 lung = test system: NCI-H23 lung
CCRF-CEM leukemia = test system: CCRF-CEM leukemia
SW-620 colon = test system: SW-620 colon
RPMI-8226 leukemia = test system: RPMI-8226 leukemia
DMS 273 small cell lung = test system: DMS 273 small cell lung
SF-268 CNS = test system: SF-268 CNS
KM12 colon = test system: KM12 colon
EKVX NSCLC = test system: EKVX NSCLC
U251 CNS = test system: U251 CNS
NCI-H226 lung = test system: NCI-H226 lung
SR leukemia = test system: SR leukemia
SK-MEL-2 melanoma = test system: SK-MEL-2 melanoma
HCC-2998 colon = test system: HCC-2998 colon
KM20L2 colon = test system: KM20L2 colon
HT29 colon = test system: HT29 colon
SK-MEL-5 melanoma = test system: SK-MEL-5 melanoma
HOP-18 NSCLC = test system: HOP-18 NSCLC
MOLT-4 leukemia = test system: MOLT-4 leukemia
SNB-75 CNS = test system: SNB-75 CNS
786-0 renal = test system: 786-0 renal
ACHN renal = test system: ACHN renal
HL-60(TB) leukemia = test system: HL-60(TB) leukemia
OVCAR-5 ovarian = test system: OVCAR-5 ovarian
A549 NSCLC = test system: A549 NSCLC
SF-539 CNS = test system: SF-539 CNS
A498 renal = test system: A498 renal
OVCAR-8 ovarian = test system: OVCAR-8 ovarian
M14 melanoma = test system: M14 melanoma
UACC-62 melanoma = test system: UACC-62 melanoma
XF 498 CNS = test system: XF 498 CNS
LXFL 529 NSCLC = test system: LXFL 529 NSCLC
UACC-257 melanoma = test system: UACC-257 melanoma
MALME-3M melanoma = test system: MALME-3M melanoma
COLO 205 colon = test system: COLO 205 colon
HCT-15 colon = test system: HCT-15 colon
K-562 leukemia = test system: K-562 leukemia
DLD-1 colon = test system: DLD-1 colon
LOX IMVI melanoma = test system: LOX IMVI melanoma
OVCAR-3 ovarian = test system: OVCAR-3 ovarian
OVCAR-4 ovarian = test system: OVCAR-4 ovarian
NCI-H522 lung = test system: NCI-H522 lung
SN12C renal = test system: SN12C renal
HCT-116 colon = test system: HCT-116 colon
UO-31 renal = test system: UO-31 renal
IGROV1 ovarian = test system: IGROV1 ovarian

**Q.** Which results are given for C/C(CC(=O)Nc1ccc([N+](=O)[O-])cc1)=N\NC(N)=O?
**A.** TGI (HOP-92 NSCLC): > 100 µM; TGI (HOP-62 NSCLC): > 100 µM; TGI (NCI-H460 lung): > 100 µM; TGI (M19-MEL melanoma): > 100 µM; TGI (SNB-19 CNS): > 100 µM; TGI (SK-MEL-28 melanoma): > 100 µM; TGI (RXF 393 renal): > 100 µM; TGI (DMS 114 small cell lung): > 62.6 µM; TGI (TK-10 renal): > 100 µM; TGI (SF-295 CNS): > 100 µM; TGI (SK-OV-3 ovarian): > 100 µM; TGI (CAKI-1 renal): > 100 µM; TGI (SNB-78 CNS): > 100 µM; TGI (NCI-H23 lung): > 100 µM; TGI (CCRF-CEM leukemia): > 71.4 µM; TGI (SW-620 colon): > 100 µM; TGI (RPMI-8226 leukemia): > 69.5 µM; TGI (DMS 273 small cell lung): > 100 µM; TGI (SF-268 CNS): > 100 µM; TGI (KM12 colon): > 100 µM; TGI (EKVX NSCLC): > 100 µM; TGI (U251 CNS): > 100 µM; TGI (NCI-H226 lung): > 100 µM; TGI (SR leukemia): 45.8 µM; TGI (SK-MEL-2 melanoma): > 100 µM; TGI (HCC-2998 colon): > 100 µM; TGI (KM20L2 colon): > 100 µM; TGI (HT29 colon): > 100 µM; TGI (SK-MEL-5 melanoma): > 100 µM; TGI (HOP-18 NSCLC): > 100 µM; TGI (MOLT-4 leukemia): > 100 µM; TGI (SNB-75 CNS): > 100 µM; TGI (786-0 renal): > 100 µM; TGI (ACHN renal): > 100 µM; TGI (HL-60(TB) leukemia): > 100 µM; TGI (OVCAR-5 ovarian): > 100 µM; TGI (A549 NSCLC): > 100 µM; TGI (SF-539 CNS): > 100 µM; TGI (A498 renal): > 100 µM; TGI (OVCAR-8 ovarian): > 100 µM; TGI (M14 melanoma): > 100 µM; TGI (UACC-62 melanoma): > 100 µM; TGI (XF 498 CNS): > 100 µM; TGI (LXFL 529 NSCLC): > 100 µM; TGI (UACC-257 melanoma): > 100 µM; TGI (MALME-3M melanoma): > 100 µM; TGI (COLO 205 colon): > 100 µM; TGI (HCT-15 colon): > 100 µM; TGI (K-562 leukemia): > 100 µM; TGI (DLD-1 colon): > 100 µM; TGI (LOX IMVI melanoma): > 100 µM; TGI (OVCAR-3 ovarian): > 100 µM; TGI (OVCAR-4 ovarian): > 100 µM; TGI (NCI-H522 lung): > 100 µM; TGI (SN12C renal): > 100 µM; TGI (HCT-116 colon): > 100 µM; TGI (UO-31 renal): > 100 µM; TGI (IGROV1 ovarian): > 100 µM

**Q.** With CC(=O)OCC1=C(CCC#N)N2C(=O)C(NC(=O)Cc3cccs3)C2S(=O)C1 (stereo not given) as the compound, how does the TGI (HOP-92 NSCLC) read?
**A.** > 100 µM

**Q.** What about the TGI (HOP-62 NSCLC) of the same compound?
**A.** > 100 µM

**Q.** What about the TGI (NCI-H460 lung) of the same compound?
**A.** > 100 µM

**Q.** And the TGI (M19-MEL melanoma)?
**A.** > 100 µM

**Q.** What about the TGI (SNB-19 CNS) of the same compound?
**A.** > 100 µM

**Q.** And the TGI (SK-MEL-28 melanoma)?
**A.** > 100 µM

**Q.** And the TGI (RXF 393 renal)?
**A.** > 100 µM

**Q.** What about the TGI (DMS 114 small cell lung) of the same compound?
**A.** > 100 µM

**Q.** What about the TGI (TK-10 renal) of the same compound?
**A.** > 100 µM

**Q.** What about the TGI (SF-295 CNS) of the same compound?
**A.** > 100 µM

**Q.** And the TGI (SK-OV-3 ovarian)?
**A.** > 100 µM

**Q.** And the TGI (CAKI-1 renal)?
**A.** > 100 µM

**Q.** What about the TGI (SNB-78 CNS) of the same compound?
**A.** > 100 µM

**Q.** And the TGI (NCI-H23 lung)?
**A.** > 100 µM

**Q.** What about the TGI (CCRF-CEM leukemia) of the same compound?
**A.** > 100 µM

**Q.** And the TGI (SW-620 colon)?
**A.** > 100 µM

**Q.** And the TGI (RPMI-8226 leukemia)?
**A.** > 100 µM

**Q.** What about the TGI (DMS 273 small cell lung) of the same compound?
**A.** > 100 µM

**Q.** And the TGI (SF-268 CNS)?
**A.** > 100 µM

**Q.** What about the TGI (KM12 colon) of the same compound?
**A.** > 100 µM

**Q.** What about the TGI (EKVX NSCLC) of the same compound?
**A.** > 100 µM

**Q.** And the TGI (U251 CNS)?
**A.** > 100 µM

**Q.** What about the TGI (NCI-H226 lung) of the same compound?
**A.** > 100 µM

**Q.** And the TGI (SR leukemia)?
**A.** > 100 µM

**Q.** And the TGI (SK-MEL-2 melanoma)?
**A.** > 100 µM

**Q.** And the TGI (HCC-2998 colon)?
**A.** > 100 µM

**Q.** What about the TGI (KM20L2 colon) of the same compound?
**A.** > 100 µM

**Q.** And the TGI (HT29 colon)?
**A.** > 100 µM

**Q.** And the TGI (SK-MEL-5 melanoma)?
**A.** > 100 µM

**Q.** What about the TGI (HOP-18 NSCLC) of the same compound?
**A.** > 100 µM

**Q.** And the TGI (MOLT-4 leukemia)?
**A.** > 100 µM

**Q.** What about the TGI (SNB-75 CNS) of the same compound?
**A.** > 100 µM

**Q.** And the TGI (786-0 renal)?
**A.** > 100 µM

**Q.** What about the TGI (ACHN renal) of the same compound?
**A.** > 100 µM

**Q.** And the TGI (HL-60(TB) leukemia)?
**A.** > 100 µM

**Q.** And the TGI (OVCAR-5 ovarian)?
**A.** > 100 µM

**Q.** What about the TGI (A549 NSCLC) of the same compound?
**A.** > 100 µM

**Q.** What about the TGI (SF-539 CNS) of the same compound?
**A.** > 100 µM

**Q.** What about the TGI (A498 renal) of the same compound?
**A.** > 100 µM

**Q.** And the TGI (OVCAR-8 ovarian)?
**A.** > 100 µM

**Q.** What about the TGI (M14 melanoma) of the same compound?
**A.** > 100 µM

**Q.** What about the TGI (UACC-62 melanoma) of the same compound?
**A.** > 100 µM

**Q.** And the TGI (XF 498 CNS)?
**A.** > 100 µM

**Q.** And the TGI (UACC-257 melanoma)?
**A.** > 100 µM

**Q.** What about the TGI (MALME-3M melanoma) of the same compound?
**A.** > 100 µM

**Q.** What about the TGI (COLO 205 colon) of the same compound?
**A.** > 100 µM

**Q.** What about the TGI (HCT-15 colon) of the same compound?
**A.** > 100 µM

**Q.** What about the TGI (K-562 leukemia) of the same compound?
**A.** > 100 µM

**Q.** And the TGI (DLD-1 colon)?
**A.** > 100 µM

**Q.** And the TGI (LOX IMVI melanoma)?
**A.** > 100 µM

**Q.** What about the TGI (OVCAR-3 ovarian) of the same compound?
**A.** > 100 µM

**Q.** What about the TGI (OVCAR-4 ovarian) of the same compound?
**A.** > 100 µM

**Q.** And the TGI (NCI-H522 lung)?
**A.** > 100 µM

**Q.** What about the TGI (SN12C renal) of the same compound?
**A.** > 100 µM

**Q.** What about the TGI (HCT-116 colon) of the same compound?
**A.** > 100 µM

**Q.** What about the TGI (UO-31 renal) of the same compound?
**A.** > 100 µM

**Q.** And the TGI (IGROV1 ovarian)?
**A.** > 100 µM
